# Measurements published in US9120804B2, “8-substituted 2-amino-[1,2,4] triazolo [1, 5-A] pyrazines as Syk tryrosine kinase inhibitors and GCN2 serin kinase inhibitors” (Merck Patent GmbH, priority 2012, dated 2015).
# Target: T1, SYK (Homo sapiens, UniProt P43405)
# T1 construct: 2.5 nM SYK, 400 nM Biotin-Aha-Aha-KEDPDYEWPSAKK
# Test: SYK flash plate assay (enzyme assay)
# Assay type: biochemical
# Procedure: The kinase assay is performed either as 384-well Flashplate assay (for e.g. Topcount measurement) or as 384-well Image-Flashplate assay (for LEADseeker measurement).
# 2.5 nM SYK, 400 nM Biotin-Aha-Aha-KEDPDYEWPSAKK
# and 10 μM ATP (spiked with 0.3 μCi 33P-ATP/well) are incubated in a total volume of 50 μl (60 mM Hepes, 10 mM MgCl2, 1.2 mM Dithiothreitol, 0.02% Brij35, 0.1% BSA, pH 7.5) with or without test compound for 1 hours at 30° C. The reaction is stopped with 25 μl 200 mM EDTA. After 30 Min at 30° C. the liquid is removed and each well washed thrice with 100 μl 0.9% sodium chloride solution. Non-specific reaction is determined in presence of […] Staurosporine. Radioactivity is measured with Topcount (when using Flashplates) or with LEADseeker (when using Image-Flashplates) respectively. Results (e.g. IC50-values) are calculated with program tools provided by the IT-department (e.g. Symyx Assay Explorer, Genedata Screener). In Vivo Assays CIA
row,SMILES,IC50 [nM]
1,"CC1(C)C(=O)Nc2cc(Nc3nc4c(N5CCCC6(COC6)C5)nccn4n3)ccc21 [C92, 3,3-dimethyl-6-[8-(2-oxa-6-aza-spiro[3.5]non-6-yl)-[1,2,4]triazolo[1,5-a]pyrazin-2-ylamino]-1,3-dihydro-indol-2-one]",< 100
2,"CC1(C)C(=O)Nc2cc(Nc3nc4c(N[C@H]5CC[C@@H](O)CC5)nccn4n3)ccc21 [C75, cis-6-[8-(4-hydroxy-cyclohexylamino)-[1,2,4]triazolo[1,5-a]pyrazin-2-ylamino]-3,3-dimethyl-1,3-dihydro-indol-2-one]",< 100
3,"CC1(C)C(=O)Nc2cc(Nc3nc4c(N[C@H]5C[C@@H](N)C5)nccn4n3)ccc21 [C98, 6-[8-(cis-3-amino-cyclobutylamino)-[1,2,4]triazolo[1,5-a]pyrazin-2-ylamino]-3,3-dimethyl-1,3-dihydro-indol-2-one]",< 100
4,"N#Cc1ccc(Nc2nc3c(-c4ccccc4-c4ccccc4)nccn3n2)cc1O [C35, 4-(8-Biphenyl-2-yl-[1,2,4]triazolo[1,5-a]pyrazin-2-ylamino)-2-hydroxybenzonitrile]",3000 to 50000
5,"COc1ccc(Nc2nc3c(-c4ccccc4-c4ccccc4)nccn3n2)cc1OC [C5, (8-Biphenyl-2-yl-[1,2,4]triazolo[1,5-a]pyrazin-2-yl)-(3,4-dimethoxy-phenyl)-amine]",100 to 300
6,"c1ccc(-c2ccccc2-c2nccn3nc(Nc4cccc(N5CCOCC5)c4)nc23)cc1 [C17, (8-Biphenyl-2-yl-[1,2,4]triazolo[1,5-a]pyrazin-2-yl)-(3-morpholin-4-yl-phenyl)-amine]",300 to 3000
7,"CC1(C)C(=O)Nc2cc(Nc3nc4c(N5CCCC5c5ccccc5)nccn4n3)ccc21 (centres unmarked) [C100, 3,3-dimethyl-6-[8-(2-phenyl-pyrrolidin-1-yl)-[1,2,4]triazolo[1,5-a]pyrazin-2-ylamino]-1,3-dihydro-indol-2-one]",300 to 3000
8,"COc1cc(Nc2nc3c(N4CCN(C(=O)OC(C)(C)C)CC4)nccn3n2)cc(OC)c1 [D1, 4-[2-(3,5-dimethoxy-phenylamino)-[1,2,4]triazolo[1,5-a]pyrazin-8-yl]-piperazine-1-carboxylic acid tert-butyl ester]",3000 to 50000
9,"COc1cc(Nc2nc3c(N4CCN(C)CC4)nccn3n2)cc(OC)c1 [C46, (3,5-dimethoxy-phenyl)-[8-(4-methyl-piperazin-1-yl)-[1,2,4]triazolo[1,5-a]pyrazin-2-yl]-amine]",300 to 3000
10,"CC1(C)C(=O)Nc2cc(Nc3nc4c(N5CCCC6(C5)NC(=O)NC6=O)nccn4n3)ccc21 (centres unmarked) [C110, 7-[2-(3,3-dimethyl-2-oxo-2,3-dihydro-1H-indol-6-ylamino)-[1,2,4]triazolo[1,5-a]pyrazin-8-yl]-1,3,7-triaza-spiro[4.5]decane-2,4-dione]",300 to 3000
11,"CC1(C)C(=O)Nc2cc(Nc3nc4c(-c5cccc(S(N)(=O)=O)c5)nccn4n3)ccc21 [C102, 3-[2-(3,3-dimethyl-2-oxo-2,3-dihydro-1H-indol-6-ylamino)-[1,2,4]triazolo[1,5-a]pyrazin-8-yl]-benzenesulfonamide]",< 100

# Further lines, results first:
row,IC50 [nM],SMILES
1,3000 to 50000,"CC1(C)C(=O)Nc2cc(Nc3nc4c(OC5CCNC5)nccn4n3)ccc21 (centres unmarked) [E123, 3,3-dimethyl-6-[8-(pyrrolidin-3-yloxy)-[1,2,4]triazolo[1,5-a]pyrazin-2-ylamino]-1,3-dihydro-indol-2-one]"
2,< 100,"CC1(C)OC(C(F)(F)F)Nc2cc(Nc3nc4c(N5CCCCCC5)nccn4n3)ccc21 (centres unmarked) [E126, (8-azepan-1-yl-[1,2,4]triazolo[1,5-a]pyrazin-2-yl)-(4,4-dimethyl-2-trifluoromethyl-1,4-dihydro-2H-benzo[d][1,3]oxazin-7-yl)-amine]"
3,< 100,"CC1(C)C(=O)Nc2cc(Nc3nc4c(N5CCCC5)nccn4n3)ccc21 [E41, 3,3-dimethyl-6-(8-pyrrolidin-1-yl-[1,2,4]triazolo[1,5-a]pyrazin-2-ylamino)-1,3-dihydro-indol-2-one]"
4,< 100,"CC1(C)C(=O)Nc2cc(Nc3nc4c(N5CC[C@]6(CC(=O)NC6=O)C5)nccn4n3)ccc21 [E18, (S)-7-[2-(3,3-dimethyl-2-oxo-2,3-dihydro-1H-indol-6-ylamino)-[1,2,4]triazolo[1,5-a]pyrazin-8-yl]-2,7-diaza-spiro[4.4]nonane-1,3-dione]"
5,100 to 300,"CC1(C)C(=O)Nc2cc(Nc3nc4c(N5C[C@@H](O)C[C@@H]5c5ccccc5)nccn4n3)ccc21 [E5, 6-[8-((2R,4S)-4-hydroxy-2-phenyl-pyrrolidin-1-yl)-[1,2,4]triazolo[1,5-a]pyrazin-2-ylamino]-3,3-dimethyl-1,3-dihydro-indol-2-one]"
6,300 to 3000,"CC(C)(OC(O)C(F)(F)F)c1ccc(Nc2nc3c(N4CCCCCC4)nccn3n2)cc1N (centres unmarked) [E127, 1-{1-[2-amino-4-(8-azepan-1-yl-[1,2,4]triazolo[1,5-a]pyrazin-2-ylamino)-phenyl]-1-methyl-ethoxy}-2,2,2-trifluoro-ethanol]"
7,< 100,"CN(C)c1nccn2nc(Nc3ccc4c(c3)NC(=O)C4(C)C)nc12 [E88, 6-(8-dimethylamino-[1,2,4]triazolo[1,5-a]pyrazin-2-ylamino)-3,3-dimethyl-1,3-dihydro-indol-2-one]"
8,< 100,"CC1(C)C(=O)Nc2cc(Nc3nc4c(N5CCC(C(N)=O)CC5)nccn4n3)ccc21 [E40, 1-[2-(3,3-dimethyl-2-oxo-2,3-dihydro-1H-indol-6-ylamino)-[1,2,4]triazolo[1,5-a]pyrazin-8-yl]-piperidine-4-carboxylic acid amide]"
9,< 100,"CC1(C)C(=O)Nc2cc(Nc3nc4c(N5CC[C@]6(CCNC6)C5)nccn4n3)ccc21 [E105, 6-[(S)-8-(2,7-diaza-spiro[4.4]non-2-yl)-[1,2,4]triazolo[1,5-a]pyrazin-2-ylamino]-3,3-dimethyl-1,3-dihydro-indol-2-one]"
10,300 to 3000,"CC1(C)C(=O)Nc2cc(Nc3nc4c(NC(=O)c5ccc6c(c5)NCC6)nccn4n3)ccc21 [E129, 2,3-dihydro-1H-indole-6-carboxylic acid [2-(3,3-dimethyl-2-oxo-2,3-dihydro-1H-indol-6-ylamino)-[1,2,4]triazolo[1,5-a]pyrazin-8-yl]-amide]"
11,< 100,"CC1(C)CC(=O)Nc2cc(Nc3nc4c(N5CC[C@@]6(CC(=O)NC6=O)C5)nccn4n3)ccc21 [E48, (R)-7-[2-(4,4-dimethyl-2-oxo-1,2,3,4-tetrahydro-quinolin-7-ylamino)-[1,2,4]triazolo[1,5-a]pyrazin-8-yl]-2,7-diaza-spiro[4.4]nonane-1,3-dione]"
12,100 to 300,"CN1[C@@H]2CC[C@H]1C[C@@H](Nc1nccn3nc(Nc4ccc5c(c4)NC(=O)C5(C)C)nc13)C2 [E78, 3,3-dimethyl-6-[8-((1R,3R,5S)-8-methyl-8-aza-bicyclo[3.2.1]oct-3-ylamino)-[1,2,4]triazolo[1,5-a]pyrazin-2-ylamino]-1,3-dihydro-indol-2-one]"
13,100 to 300,"CC1(C)C(=O)Nc2cc(Nc3nc4c(N5C[C@H](O)C[C@@H]5c5ccccc5)nccn4n3)ccc21 [E6, 6-[8-(4(2R,4R)-4-hydroxy-2-phenyl-pyrrolidin-1-yl)-[1,2,4]triazolo[1,5-a]pyrazin-2-ylamino]-3,3-dimethyl-1,3-dihydro-indol-2-one]"
14,100 to 300,"CC1(C)C(=O)Nc2cc(Nc3nc4c(N5CC6C(=O)NC(=O)C6C5)nccn4n3)ccc21 (centres unmarked) [E33, 5-[2-(3,3-dimethyl-2-oxo-2,3-dihydro-1H-indol-6-ylamino)-[1,2,4]triazolo[1,5-a]pyrazin-8-yl]-tetrahydro-pyrrolo[3,4-c]pyrrole-1,3-dione]"
15,300 to 3000,"CC(=O)N(C)C1CCN(c2nccn3nc(Nc4ccc5c(c4)NC(=O)C5(C)C)nc23)C1 (centres unmarked) [E11, N-{1-[2-(3,3-dimethyl-2-oxo-2,3-dihydro-1H-indol-6-ylamino)-[1,2,4]triazolo[1,5-a]pyrazin-8-yl]-pyrrolidin-3-yl}-N-methyl-acetamide]"
16,< 100,"CC1(C)C(=O)Nc2cc(Nc3nc4c(N5CCC6(CC5)CNC(=O)C6)nccn4n3)ccc21 [E63, 8-[2-(3,3-dimethyl-2-oxo-2,3-dihydro-1H-indol-6-ylamino)-[1,2,4]triazolo[1,5-a]pyrazin-8-yl]-2,8-diaza-spiro[4.5]decan-3-one]"
17,< 100,"CC1(C)C(=O)Nc2cc(Nc3nc4c(N5CCc6ccc(C(N)=O)cc65)nccn4n3)ccc21 [E131, 1-[2-(3,3-Dimethyl-2-oxo-2,3-dihydro-1H-indol-6-ylamino)-[1,2,4]triazolo[1,5-a]pyrazin-8-yl]-2,3-dihydro-1H-indole-6-carboxylic acid amide]"
18,< 100,"CC1(C)C(=O)Nc2cc(Nc3nc4c(N5CCc6ccc(C#N)cc65)nccn4n3)ccc21 [E134, 1-[2-(3,3-dimethyl-2-oxo-2,3-dihydro-1H-indol-6-ylamino)-[1,2,4]triazolo[1,5-a]pyrazin-8-yl]-2,3-dihydro-1H-indole-6-carbonitrile]"
19,100 to 300,"CC1(C)C(=O)Nc2cc(Nc3nc4c(N5CCC(C(=O)NC6CC6)C5)nccn4n3)ccc21 (centres unmarked) [E4, 1-[2-(3,3-dimethyl-2-oxo-2,3-dihydro-1H-indol-6-ylamino)-[1,2,4]triazolo[1,5-a]pyrazin-8-yl]-pyrrolidine-3-carboxylic acid cyclopropylamide]"
20,< 100,"CC1(C)C(=O)Nc2cc(Nc3nc4c(-c5cnn(C(C)(C)C)c5)nccn4n3)ccc21 [E140, 6-[8-(1-tert-butyl-1H-pyrazol-4-yl)-[1,2,4]triazolo[1,5-a]pyrazin-2-ylamino]-3,3-dimethyl-1,3-dihydro-indol-2-one]"
21,< 100,"CC1(C)C(=O)Nc2cc(Nc3nc4c(-c5cnoc5)nccn4n3)ccc21 [E149, 6-(8-isoxazol-4-yl-[1,2,4]triazolo[1,5-a]pyrazin-2-ylamino)-3,3-dimethyl-1,3-dihydro-indol-2-one]"
